Measured values from US7910594B2 (priority 2002, dated 2011).
Where “and” joins values, the source holds several entries; their conditions need not be identical. Equal values may be shown once.

What was measured:
M109 tumor = test: survival of intraperitoneal M109 tumor-bearing mice; type: in vivo, Balb/c mice; settings: for increase in lifespan (ILS): 1800 mmoles/kg i.p. once daily beginning on day 5 after tumor cell inoculation, FIG. 2
Procedure: (§1) The effectiveness of EC72 for promoting survival of tumor-bearing mice was evaluated in vivo using M109 tumor-bearing Balb/c mice. There were two goals of this study: i) to determine if daily intraperitoneal treatment with EC72 could prolong the lives of folate receptor-positive tumor-bearing mice beyond what mitomycin C could do when tested under an identical dosing regimen, and ii) to examine the pathological effects of EC72 treatment on normal tissues, including kidney tissue which is folate receptor-positive tissue. Although most normal tissues contain very low levels of folate receptor, the proximal tubules of the kidney express appreciable numbers of folate receptors. Thus, the in vivo evaluation of EC72 also enabled evaluation of the extent of kidney-specific damage caused by the systemic administration of folate-mitomycin conjugates.
Balb/c mice (5 mice/group) were given an intraperitoneal injection with 1×10^6 M109 cells. The mice were then given an intraperitoneal injection once daily with […]/kg of EC72 or mitomycin C (control mice were injected with PBS) beginning on day 5 after tumor cell innoculation (ILS=increased life span (i.e., median survival time)).
Thus, a group of animals were given intraperitoneal injections of EC72 plus a 10-fold excess of free folic acid.

[1] = for myelosuppression / kidney damage: M109 tumor-bearing mice, daily i.p. treatment
Procedure: as §1
Major organs were also collected in both the EC72 and mitomycin C-treated animals (following euthanasia), and they were sent to an independent pathologist for examination.

[2] = system: folate receptor-positive KB cells; test: in vitro cytotoxicity assay (bromodeoxyuridine-based ELISA); type: cell-based
Procedure: A compound denominated as EC72 (see scheme 1) was evaluated using an in vitro cytotoxicity assay that predicts the ability of the drug to inhibit the growth of folate receptor-positive KB cells. This compound comprises a folate analog linked to mitomycin C prepared according to the protocol depicted in scheme 2. The KB cells were exposed for 15 minutes at 37° C. to the indicated concentrations of EC72, free mitomyicn C (drug #1), or to EC72 and at least a 100-fold excess of folic acid. The cells were then rinsed once with fresh culture medium and incubated in fresh culture medium for 72 hours at 37° C. Cell viability was assessed using a bromodeoxyuridine-based ELISA assay.

[3] = system: Folate receptor-positive M109 P0 tumor cells; test: in vivo dose response, intraperitoneal M109 tumor; parameters: species or system mice (female Balb/C strain)
Procedure: Six to seven week-old mice (female Balb/C strain) were obtained from Harlan, Inc., Indianapolis, Ind. The mice were maintained on Harlan's folate-free chow for a total of three weeks prior to the onset of and during this experiment. Folate receptor-positive M109 P0 tumor cells (0.5×10^6 cells per animal) were inoculated in the upper peritoneal cavity 4 days prior to the onset of dosing. The formulations indicated in FIG. 11 were dosed intraperitoneally qd×30 starting on day 4 post tumor inoculation, and animal survival was monitored daily.

subcutaneous M109 tumors [4] = test: growth of subcutaneous M109 tumors, EC72 i.v. then i.p.; type: in vivo, Balb/c mice; settings: 1800 nmoles/kg qd×5 for six weeks from day 4, i.v. (12 injections) then i.p.; FIG. 4
Procedure: The anti-tumor activity of EC72 when administered intravenously (i.v.) to tumor-bearing animals, was evaluated in Balb/c mice bearing subcutaneous M109 tumors. Thus, a protocol similar to that described in Example 3 was followed except that the compounds were administered i.v. (described below) and the tumors were subcutaneous. Four days post tumor inoculation in the subcutis of the right axilla, mice were injected i.v. qd×5 for six weeks with 1800 nmoles/kg of EC72.
Tumor growth was determined at 2-day intervals in each treatment group until the tumors grew to at least 1500 mm3. The tail veins became excessively bruised and inaccessible after 12 i.v. injections so dosing was continued i.p. following the same qd×5 schedule. […] Thus, EC72 may not have reached the distal subcutaneous tumor efficiently following i.p. administration of EC72, a limitation not encountered when EC72 was administered i.v. during the initial phase of the therapy.

[5] = biological target: T1, folate receptors (FRs) on KB cells (Homo sapiens, UniProt P15328); test: relative affinity assay (3H-folic acid displacement); type: binding; settings: 100 nM 3H-folic acid, 15 min on ice, folic acid set to 1, FIG. 9
T1 construct: FR-positive KB cells were gently trypsinized; endogenous in cells; host or cells: KB cells
T1 sequence (P15328 25-234): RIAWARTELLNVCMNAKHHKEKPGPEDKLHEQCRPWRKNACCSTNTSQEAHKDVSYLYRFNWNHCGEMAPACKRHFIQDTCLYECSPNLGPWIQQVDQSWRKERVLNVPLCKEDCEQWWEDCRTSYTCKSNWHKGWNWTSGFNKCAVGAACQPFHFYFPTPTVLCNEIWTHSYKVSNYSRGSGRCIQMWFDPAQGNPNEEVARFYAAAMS
Procedure: The affinity of EC72 for folate receptors (FRs) relative to folate was determined according to a previously described method (Westerhof, G. R., J. H. Schomagel, et al. (1995) Mol. Pharm. 48: 459-471) with slight modification. Briefly, FR-positive KB cells were gently trypsinized in 0.25% trypsin in phosphate-buffered saline (PBS) at room temperature for 3 minutes and then diluted in folate-free RPMI (FFRPMI) containing 10% heat-inactivated fetal calf serum (HIFCS). Following a 5 min 800×g spin and one PBS wash, the final cell pellet was suspended in FFRPMI 1640 (no serum). Cells were incubated for 15 min on ice with 100 nM ^3H-folic acid in the absence and presence of increasing concentrations of EC72 or folate. Samples were centrifuged at 10,000×g for 5 min, and then the cell pellets were suspended in buffer, transferred to individual vials containing 5 mL of scintillation cocktail, and then counted for radioactivity. Negative control tubes contained only the ^3H-folic acid in FFRPMI (no competitor). Positive control tubes contained a final concentration of 1 mM folic acid, and CPMs measured in these samples (representing non-specific binding of label) were subtracted from all samples.

subcutaneous M109 tumors [6] = test: survival of mice bearing subcutaneous M109 tumors, delayed start of EC72 treatment; type: in vivo, Balb/c mice; settings: for Median Survival: EC72 1800 nmol/kg i.v. qd×5 for 4 weeks
Procedure: The protocol described in Example 4 was followed except that mice were injected i.v. throughout the treatment period and were treated with EC72 for 4 weeks. Balb/c mice (n=5) were injected subcutaneously in the subcutis of the right axilla with 1×10^6 M109 cells and were treated qd×5 for 4 weeks with 1800 nmol/kg of EC72. EC72 was administered i.v. beginning on the designated day post tumor cell inoculation (PTI; see Table 3). Animal survival was monitored daily, and mice showing a complete response were those that were tumor-free at day 60 PTI.

[7] = system: Folate receptor-negative 4T-1 tumor; test: in vivo activity on folate receptor-negative tumor; parameters: species or system mice (female Balb/C strain); settings: i.p. qd×30 from day 4 post tumor inoculation; FIG. 12
Procedure: Six to seven week-old mice (female Balb/C strain) were obtained from Harlan, Inc., Indianapolis, Ind. The mice were maintained on Harlan's folate-free chow for a total of three weeks prior to the onset of and during this experiment. Folate receptor-negative 4T-1 tumor cells (1×10^6 cells per animal) were inoculated in the subcutis of the right axilla. The formulations indicated in FIG. 12 were dosed intraperitoneally qd×30 starting on day 4 post tumor inoculation, and tumor volume as well as animal survival were monitored daily. EC72 had no activity against a subcutaneous folate-receptor-negative 4T-1 tumor.

FR-positive KB cells = test: in vitro dose response, 3H-thymidine incorporation (DNA synthesis); type: cell-based; settings: 0.1 mM folic acid (competitor)
Procedure: KB cells were seeded in 12-well Falcon plates and allowed to form near-confluent monolayers overnight. Following one rinse with 1 mL of fresh FFRPMI/HIFCS, each well received 0.5 mL of FFRPMI/HIFCS containing increasing concentrations of EC72 in the presence of absence of 0.1 mM folic acid (competitor). Cells were incubated for 15 min at 37° C. and then rinsed four times with 0.5 mL of FFRPMI/HIFCS. 0.5 mL of fresh FFRPMI/HIFCS was then added to each well, and cells were chased for a total of 72 h at 37° C. Two hours before the end of the incubation, media was replaced in each well with 0.5 mL FFRPMI/HIFCS containing 5 μCi of ^3H-thymidine. Monolayers were then washed 3 times with 0.5 mL of PBS and then precipitated with 1 ml of 10% cold trichloroacetic acid. The trichloroacetic acid solution was collected and discarded, and precipitated material was sequentially dissolved in 0.5 mL 0.25 N NaOH and 1% sodium dodecyl sulfate for 15 min at room temperature. Samples were then counted for radioactivity using a Packard gamma counter. Final tabulated values were expressed as a percentage of radioactivity incorporated into untreated cell samples.

subcutaneous M109 tumors [8] = test: subcutaneous M109 tumors treated with TAXOL with or without EC72; type: in vivo, Balb/c mice
Procedure: The protocol described in Example 5 was followed except that animals were injected i.v. at the beginning of the treatment period and were injected i.p. later in the treatment period.
Tumor volumes were calculated using the equation V=a×b^2/2, where “a” is the length of the tumor and “b” is the width expressed in millimeters. The tumors were measured using calipers.

[9] = toxicity of TAXOL / EC72 regimens (weight loss, blood chemistry, tissue pathology); type: in vivo, Balb/c mice; parameters: key to Liver: mice with Degeneration / Liver: grade of Degeneration: “0.5” = Occasionally present; “1” = Mild; “2” = Moderate; “3” = Marked
Description: The toxicity of each tested regimen was also monitored by measuring weight loss, blood chemistry, and tissue pathology.

[10] = Taxol 15 mg/kg with EC72 0 or 1800 nmol/kg, 6 mice/cohort
[11] = Taxol 15 mg/kg with EC72 0 or 1800 nmol/kg, 6 mice/cohort, listed as Taxol
[12] = tissue pathology, TAXOL 15 mg/kg, n = 6 mice

With `CO[C@@]12[C@H](COC(N)=O)C3=C(C(=O)C(C)=C(N)C3=O)N1C[C@@H]1N[C@@H]12` [mitomycin C, reference compound] the “increase in lifespan (ILS)” value (M109 tumor) was 39%, the “increased life span (median survival time) over PBS control group” value (M109 tumor; repeat experiment, 30 daily i.p. injections, FIG. 3) was ~25% and the “myelosuppression / kidney damage” value [1] was “extensive myelosuppression”. For the same molecule, the “cause of death of treated animals” value ([1]; mouse, in vivo, ip) was “died from apparent mitomycin C-related side effects”.

For `CO[C@@]12[C@H](COC(N)=O)C3=C(C(=O)C(C)=C(NCCSSC[C@H](NC(=O)CC[C@H](NC(=O)c4ccc(NCc5cnc6nc(N)[nH]c(=O)c6n5)cc4)C(=O)O)C(=O)O)C3=O)N1C[C@@H]1N[C@@H]12` [EC72], the “cytotoxicity compared with free mitomycin C” value ([2]; 15 minutes exposure at 37° C., 72 hours chase, FIG. 1) was “equal to that of free mitomycin C”, the “cytotoxicity in the presence of excess free folic acid” value ([2]; at least a 100-fold excess of folic acid) was “blocked” and the “animals showing a complete response” value ([3]; 1800 nmol/kg i.p. qd×30) was 1 of 4. For the same molecule, the increase in lifespan ([3]; 1800 nmol/kg i.p. qd×30 from day 4 post tumor inoculation) was 240%, the “dose dependence of activity in M109 tumor-bearing mice” value ([3]; 100, 400, 1800 nmol/kg i.p. qd×30 from day 4, FIG. 11) was “dose-dependent activity” and the “effect on growth of subcutaneous M109 tumor” value (subcutaneous M109 tumors [4]) was “effective in delaying the growth of the M109 tumor”. The “relative affinity for the folate receptor” value [5] was 0.59, the “Median Survival” value (subcutaneous M109 tumors [6]; initiation PTI 1) was 56 days and the “Median Survival” value (subcutaneous M109 tumors [6]; initiation PTI 3) was 54 days. The “Median Survival” value (subcutaneous M109 tumors [6]; initiation PTI 7) was 28 days, the “Median Survival” value (subcutaneous M109 tumors [6]; initiation PTI 12) was 26 days and the “anti-tumor response of EC72 alone” value (subcutaneous M109 tumors [6]; EC72 treatment initiated 12 days PTI, subcutaneous tumor model) was “failed to produce an anti-tumor response”. The “% ILS” value (subcutaneous M109 tumors [6]; initiation PTI 1) was 133%, the “Complete Responses (tumor-free at day 60 PTI)” value (subcutaneous M109 tumors [6]; initiation PTI 1, n = 5) was 2 of 5 and 2 and the “Partial Responses” value (subcutaneous M109 tumors [6]; initiation PTI 1, n = 5) was 3 of 5 and 3. For the same molecule, the “% ILS” value (subcutaneous M109 tumors [6]; initiation PTI 3) was 125%, the “Complete Responses (tumor-free at day 60 PTI)” value (subcutaneous M109 tumors [6]; initiation PTI 3, n = 5) was 0 and the “Partial Responses” value (subcutaneous M109 tumors [6]; initiation PTI 3, n = 5) was 5. For the same molecule, the “% ILS” value (subcutaneous M109 tumors [6]; initiation PTI 7) was 17%, the “Complete Responses (tumor-free at day 60 PTI)” value (subcutaneous M109 tumors [6]; initiation PTI 7, n = 5) was 0 and the “Partial Responses” value (subcutaneous M109 tumors [6]; initiation PTI 7, n = 5) was 5. The “% ILS” value (subcutaneous M109 tumors [6]; initiation PTI 12) was 8%, the “Complete Responses (tumor-free at day 60 PTI)” value (subcutaneous M109 tumors [6]; initiation PTI 12, n = 5) was 0 of 5 and 0 and the “Partial Responses” value (subcutaneous M109 tumors [6]; initiation PTI 12, n = 5) was 5. The “increase in lifespan (ILS)” value (M109 tumor) was 178%, the “animals tumor-free by day 70 post tumor cell inoculation” value (M109 tumor; 30 daily i.p. injections) was 1 of 4 and the “outcome of group coinjected with folic acid” value (M109 tumor; EC72 plus a 10-fold excess of free folic acid) was “all mice in this group eventually died from the tumor burden”. For the same molecule, the “myelosuppression / kidney damage” value [1] was “no evidence of myelosuppression or kidney damage”, the “blood-urea-nitrogen and creatine levels” value ([1]; following 30 consecutive daily injections) was “normal” and the “activity against subcutaneous folate-receptor-negative 4T-1 tumor” value [7] was “no activity”. The “DNA synthesis inhibition in the presence of excess free folic acid” value (FR-positive KB cells) was “effectively blocked any DNA synthesis inhibition”.

With `CC(=O)O[C@H]1C(=O)[C@@]2(C)[C@H]([C@H](OC(=O)c3ccccc3)[C@]3(O)C[C@H](OC(=O)[C@H](O)[C@@H](NC(=O)c4ccccc4)c4ccccc4)C(C)=C1C3(C)C)[C@]1(OC(C)=O)CO[C@@H]1C[C@@H]2O` [TAXOL®, paclitaxel] the “day PTI until which tumors failed to grow” value (subcutaneous M109 tumors [8]; TAXOL 15 mg/kg, from day 12 PTI) was 21 day PTI, the “log cell kill (LCK)” value (subcutaneous M109 tumors [8]; TAXOL 20 mg/kg i.v. with or without EC72 1800 nmol/kg qd×5 for 4 weeks, from day 12 PTI, FIG. 7) was 1.3 and the “day PTI until which tumors failed to grow” value (subcutaneous M109 tumors [8]; TAXOL 20 mg/kg, from day 12 PTI) was 29 day PTI. For the same molecule, the long term survivors (subcutaneous M109 tumors [8]; TAXOL 20 mg/kg, n=5) was “none of the 5 mice”, the “CR (complete response)” value (subcutaneous M109 tumors [8]; [10]) was 2 of the 6 and the “NR (no response)” value (subcutaneous M109 tumors [8]; [10]) was 0. The “PR (partial response)” value (subcutaneous M109 tumors [8]; [10]) was 4 of the 6, the “CR (complete response)” value (subcutaneous M109 tumors [8]; [11]) was 2 and the “PR (partial response)” value (subcutaneous M109 tumors [8]; [11]) was 4. For the same molecule, the “Log Cell Kill (LCK)” value (subcutaneous M109 tumors [8]; Taxol 15 mg/kg with EC72 0 or 1800 nmol/kg, from day 12 PTI, 6 mice/cohort, FIG. 8) was 0.6, the “appearance and body weight during dosing” value ([9]; TAXOL 20 mg/kg with or without EC72 1800 nmol/kg) was “appeared sick, experienced weight loss” and the “Bone: mice Normal” value [9, 12] was 6. For the same molecule, the “Heart: mice Normal” value [9, 12] was 6, the “Kidney: mice Normal” value [9, 12] was 6 and the “Liver: mice Normal” value [9, 12] was 5. For the same molecule, the “Spleen: mice Normal” value [9, 12] was 6, the “Liver: grade of Degeneration” value ([9]; tissue pathology, grade in brackets) was 1(1) and the “Liver: mice with Degeneration” value ([9]; tissue pathology, number before the bracket, n = 6 mice) was 1(1).
